Reference: US9527856B2, “Oxindole compounds carrying a CO-bound spiro substituent and use thereof for treating vasopressin-related diseases” (AbbVie Deutschland GmbH & Co. KG, priority 2014, dated 2016)

Experiments:
[1] = target: T1, human vasopressin V1b receptor (Homo sapiens, UniProt P47901); experiment: biochemical; details: Ki(h-V1b)* [nM], CHO-K1 cell membranes, displacement of 3H-AVP
T1 sequence (P47901 1-424): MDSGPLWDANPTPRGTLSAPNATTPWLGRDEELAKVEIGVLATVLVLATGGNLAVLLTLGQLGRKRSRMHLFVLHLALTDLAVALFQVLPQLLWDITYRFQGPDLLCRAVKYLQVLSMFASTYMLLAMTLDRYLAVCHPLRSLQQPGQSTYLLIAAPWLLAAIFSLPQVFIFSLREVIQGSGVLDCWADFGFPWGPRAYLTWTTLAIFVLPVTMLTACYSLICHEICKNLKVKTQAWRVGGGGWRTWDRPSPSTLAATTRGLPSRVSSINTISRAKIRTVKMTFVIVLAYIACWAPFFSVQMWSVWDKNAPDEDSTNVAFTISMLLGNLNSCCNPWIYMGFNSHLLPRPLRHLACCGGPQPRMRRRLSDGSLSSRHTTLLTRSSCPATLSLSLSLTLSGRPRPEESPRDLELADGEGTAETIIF

[2] = target: human vasopressin V1a receptor (Homo sapiens, UniProt P37288); experiment: Vasopressin V1a receptor binding assay; details: selectivity for human V1b over human V1a, quotient of binding constants
Chain of human vasopressin V1a receptor (P37288 whole entry): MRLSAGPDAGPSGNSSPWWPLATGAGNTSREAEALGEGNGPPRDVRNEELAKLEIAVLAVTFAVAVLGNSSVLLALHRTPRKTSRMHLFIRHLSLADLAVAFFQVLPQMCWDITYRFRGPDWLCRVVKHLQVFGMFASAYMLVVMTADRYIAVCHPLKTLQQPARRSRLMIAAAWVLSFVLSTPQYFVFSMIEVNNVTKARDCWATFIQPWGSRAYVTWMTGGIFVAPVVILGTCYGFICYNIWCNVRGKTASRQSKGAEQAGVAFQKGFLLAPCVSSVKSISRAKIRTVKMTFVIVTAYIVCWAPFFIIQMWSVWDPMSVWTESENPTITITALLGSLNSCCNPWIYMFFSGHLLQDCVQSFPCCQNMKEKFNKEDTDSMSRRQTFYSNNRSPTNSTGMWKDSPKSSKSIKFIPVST

| SMILES | Ki [1] | Ki(h-V1a)/Ki(h-V1b) [2] |
| --- | --- | --- |
| CCOc1ncccc1[C@]1(NC(=O)N2CC3(CN(CCN4CCOCC4)C3)C2)C(=O)N(S(=O)(=O)c2ccccc2OC)c2ccc(C#N)cc21 [Example 14, N-[(3S)-5-Cyano-3-(2-ethoxy-3-pyridyl)-1-(2-methoxyphenyl)sulfonyl-2-oxo-indolin-3-yl]-2-(2-morpholinoethyl)-2,6-diazaspiro[3.3]heptane-6-carboxamide] | 10 to 100 nM | +++ (>75) |
| CCOc1ncccc1[C@]1(NC(=O)N2CC3(CN(CCN4CCOCC4)C3)C2)C(=O)N(S(=O)(=O)c2ccc(OC)cc2OC)c2ccc(C#N)cc21 [Example 7, N-[(3S)-5-Cyano-1-(2,4-dimethoxyphenyl)sulfonyl-3-(2-ethoxy-3-pyridyl)-2-oxo-indolin-3-yl]-2-(2-morpholinoethyl)-2,6-diazaspiro[3.3]heptane-6-carboxamide] | 1 to 10 nM | ++ (25-75) |
| CCOc1ncccc1[C@]1(NC(=O)N2CC3(C2)CN(C2CCN(C(C)C)CC2)C3)C(=O)N(S(=O)(=O)c2ccc(OC)cc2)c2ccc(C#N)cc21 [Example 29, N-[(3S)-5-Cyano-3-(2-ethoxy-3-pyridyl)-1-(4-methoxyphenyl)sulfonyl-2-oxo-indolin-3-yl]-2-(1-isopropyl-4-piperidyl)-2,6-diazaspiro[3.3]heptane-6-carboxamide] | 1 to 10 nM | +++ (>75) |
| CCOc1ncccc1C1(NC(=O)N2CCC3(CCN(CC)CC3)CC2)C(=O)N(S(=O)(=O)c2ccc(OC)cc2OC)c2ccc(C#N)cc21 (stereo not shown) [Example 56, N-(5-Cyano-1-(2,4-dimethoxyphenylsulfonyl)-3-(2-ethoxypyridin-3-yl)-2-oxoindolin-3-yl)-9-ethyl-3,9-diazaspiro[5.5]undecane-3-carboxamide 2,2,2-trifluoroacetate] | 10 to 100 nM |  |
| CCOc1ncccc1[C@]1(NC(=O)N2CC3(C2)CN(C2CCN(C)CC2)C3)C(=O)N(S(=O)(=O)c2ccccc2OC)c2ccc(C#N)cc21 [Example 32, N-[(3S)-5-Cyano-3-(2-ethoxy-3-pyridyl)-1-(2-methoxyphenyl)sulfonyl-2-oxo-indolin-3-yl]-2-(1-methyl-4-piperidyl)-2,6-diazaspiro[3.3]heptane-6-carboxamide] | 10 to 100 nM | ++ (25-75) |
| CCOc1ccccc1[C@]1(NC(=O)N2CC3(C2)CN(C2CCN(C)CC2)C3)C(=O)N(S(=O)(=O)c2ccc(OC)cc2OC)c2ccc(C#N)cc21 [Example 39B, N-[(3S)-5-Cyano-1-(2,4-dimethoxyphenyl)sulfonyl-3-(2-ethoxyphenyl)-2-oxo-indolin-3-yl]-2-(1-methyl-4-piperidyl)-2,6-diazaspiro[3.3]heptane-6-carboxamide] | 10 to 100 nM | ++ (25-75) |
| CCOc1ncccc1C1(NC(=O)N2CCC3(CC2)CN(C2CCNCC2)C3)C(=O)N(S(=O)(=O)c2ccc(OC)cc2OC)c2ccc(C#N)cc21 (stereo not shown) [Example 50, N-(5-Cyano-1-(2,4-dimethoxyphenylsulfonyl)-3-(2-ethoxypyridin-3-yl)-2-oxoindolin-3-yl)-2-(piperidin-4-yl)-2,7-diazaspiro[3.5]nonane-7-carboxamide bis-2,2,2-trifluoroacetate] | 10 to 100 nM |  |
| CCOc1ncccc1C1(NC(=O)C2CCC3(CCNCC3)CC2)C(=O)N(S(=O)(=O)c2ccc(OC)cc2OC)c2ccc(C#N)cc21 (stereo not shown) [Example 52, N-(5-Cyano-1-(2,4-dimethoxyphenylsulfonyl)-3-(2-ethoxypyridin-3-yl)-2-oxoindolin-3-yl)-3-azaspiro[5.5]undecane-9-carboxamide 2,2,2-trifluoroacetate] | 1 to 10 nM |  |
| CCOc1ncccc1[C@]1(NC(=O)N2CC3(CN(CCN(CC)CC)C3)C2)C(=O)N(S(=O)(=O)c2ccc(OC)cc2)c2ccc(C#N)cc21 [Example 9, N-[(3S)-5-Cyano-3-(2-ethoxy-3-pyridyl)-1-(4-methoxyphenyl)sulfonyl-2-oxo-indolin-3-yl]-2-(2-diethylaminoethyl)-2,6-diazaspiro[3.3]heptane-6-carboxamide] | 1 to 10 nM | +++ (>75) |
| CCOc1ncccc1[C@]1(NC(=O)N2CC3(CN(CCCN4CCOCC4)C3)C2)C(=O)N(S(=O)(=O)c2ccc(OC)cc2)c2ccc(C#N)cc21 [Example 2, N-[(3S)-5-Cyano-3-(2-ethoxy-3-pyridyl)-1-(4-methoxyphenyl)sulfonyl-2-oxo-indolin-3-yl]-2-(3-morpholinopropyl)-2,6-diazaspiro[3.3]heptane-6-carboxamide] | 10 to 100 nM | +++ (>75) |
| CCOc1ncccc1[C@]1(NC(=O)N2CC3(C2)CN(C2CCN(C(C)C)CC2)C3)C(=O)N(S(=O)(=O)c2ccc(F)cc2)c2ccc(C#N)cc21 [Example 27, N-[(3S)-5-Cyano-3-(2-ethoxy-3-pyridyl)-1-(4-fluorophenyl)sulfonyl-2-oxo-indolin-3-yl]-2-(1-isopropyl-4-piperidyl)-2,6-diazaspiro[3.3]heptane-6-carboxamide] | 10 to 100 nM | +++ (>75) |
| CCOc1ncccc1C1(NC(=O)N2CC3(C2)CN(C2CCN(C(C)C)CC2)C3)C(=O)N(S(=O)(=O)c2ccc(OC)cc2OC)c2ccc(C#N)cc21 (racemic) [Example 22, (±)-N-[5-Cyano-1-(2,4-dimethoxyphenyl)sulfonyl-3-(2-ethoxy-3-pyridyl)-2-oxo-indolin-3-yl]-2-(1-isopropyl-4-piperidyl)-2,6-diazaspiro[3.3]heptane-6-carboxamide] | 1 to 10 nM | +++ (>75) |
| CCOc1ncccc1C1(NC(=O)C2CCC3(CC2)CCN(C2CCNCC2)CC3)C(=O)N(S(=O)(=O)c2ccc(OC)cc2OC)c2ccc(C#N)cc21 (stereo not shown) [Example 47, N-(5-Cyano-1-(2,4-dimethoxyphenylsulfonyl)-3-(2-ethoxypyridin-3-yl)-2-oxoindolin-3-yl)-3-(piperidin-4-yl)-3-azaspiro[5.5]undecane-9-carboxamide 2,2,2-trifluoroacetate] | 1 to 10 nM |  |
| CCOc1ncccc1[C@]1(NC(=O)N2CC3(CN(CCN4CCOCC4)C3)C2)C(=O)N(S(=O)(=O)c2ccc(C)cc2)c2ccc(C#N)cc21 [Example 16, N-[(3S)-5-Cyano-3-(2-ethoxy-3-pyridyl)-2-oxo-1-(p-tolylsulfonyl)indolin-3-yl]-2-(2-morpholinoethyl)-2,6-diazaspiro[3.3]heptane-6-carboxamide] |  | ++ (25-75) |
| CCOc1ncccc1C1(NC(=O)N2CC3(CCN(C)CC3)C2)C(=O)N(S(=O)(=O)c2ccc(OC)cc2OC)c2ccc(C#N)cc21 (stereo not shown) [Example 55, N-(5-Cyano-1-(2,4-dimethoxyphenylsulfonyl)-3-(2-ethoxypyridin-3-yl)-2-oxoindolin-3-yl)-7-methyl-2,7-diazaspiro[3.5]nonane-2-carboxamide 2,2,2-trifluoroacetate] | 10 to 100 nM |  |
| CCOc1ncccc1C1(NC(=O)C2CC3(CNC3)C2)C(=O)N(S(=O)(=O)c2ccc(OC)cc2OC)c2ccc(C#N)cc21 (stereo not shown) [Example 57, N-(5-Cyano-1-(2,4-dimethoxyphenylsulfonyl)-3-(2-ethoxypyridin-3-yl)-2-oxoindolin-3-yl)-2-azaspiro[3.3]heptane-6-carboxamide 2,2,2-trifluoroacetate] | 10 to 100 nM |  |
| CCOc1ncccc1C1(NC(=O)N2CCC3(CC2)CNC3)C(=O)N(S(=O)(=O)c2ccc(OC)cc2OC)c2ccc(C#N)cc21 (stereo not shown) [Example 51, N-(5-Cyano-1-(2,4-dimethoxyphenylsulfonyl)-3-(2-ethoxypyridin-3-yl)-2-oxoindolin-3-yl)-2,7-diazaspiro[3.5]nonane-7-carboxamide 2,2,2-trifluoroacetate] | 10 to 100 nM |  |
| CCOc1ncccc1C1(NC(=O)C2CC3(C2)CC(N2CC4(CNC4)C2)C3)C(=O)N(S(=O)(=O)c2ccc(OC)cc2OC)c2ccc(C#N)cc21 (stereo not shown) [Example 48, N-(5-Cyano-1-(2,4-dimethoxyphenylsulfonyl)-3-(2-ethoxypyridin-3-yl)-2-oxoindolin-3-yl)-6-(2,6-diazaspiro[3.3]heptan-2-yl)spiro[3.3]heptane-2-carboxamide 2,2,2-trifluoroacetate] | 1 to 10 nM |  |
| CCOc1ncccc1[C@]1(NC(=O)C2CC3(CNC3)C2)C(=O)N(S(=O)(=O)c2ccc(OC)cc2)c2ccc(C#N)cc21 [Example 44, N-[(3S)-5-Cyano-3-(2-ethoxy-3-pyridyl)-1-(4-methoxyphenyl)sulfonyl-2-oxo-indolin-3-yl]-6-azaspiro[3.3]heptane-2-carboxamide] | 10 to 100 nM |  |
| CCOc1ncccc1[C@]1(NC(=O)N2CC3(C2)CN(C2COC2)C3)C(=O)N(S(=O)(=O)c2ccc(F)cc2)c2ccc(C#N)cc21 [Example 31, N-[(3S)-5-Cyano-3-(2-ethoxy-3-pyridyl)-1-(4-fluorophenyl)sulfonyl-2-oxo-indolin-3-yl]-2-(oxetan-3-yl)-2,6-diazaspiro[3.3]heptane-6-carboxamide] | 10 to 100 nM |  |
| CCOc1ncccc1C1(NC(=O)N2CCC3(CCN(C)CC3)CC2)C(=O)N(S(=O)(=O)c2ccc(OC)cc2OC)c2ccc(C#N)cc21 (stereo not shown) [Example 53, N-(5-Cyano-1-(2,4-dimethoxyphenylsulfonyl)-3-(2-ethoxypyridin-3-yl)-2-oxoindolin-3-yl)-9-methyl-3,9-diazaspiro[5.5]undecane-3-carboxamide 2,2,2-trifluoroacetate] | 10 to 100 nM |  |
| CCOc1ncccc1C1(NC(=O)C2CC3(C2)CC(N2CCN(CC)CC2)C3)C(=O)N(S(=O)(=O)c2ccc(OC)cc2OC)c2ccc(C#N)cc21 (stereo not shown) [Example 54, N-(5-Cyano-1-(2,4-dimethoxyphenylsulfonyl)-3-(2-ethoxypyridin-3-yl)-2-oxoindolin-3-yl)-6-(4-ethylpiperazin-1-yl)spiro[3.3]heptane-2-carboxamide 2,2,2-trifluoroacetate] | < 1 nM |  |
